In US8598339B2, “Withanolide isolated from Physalis longifolia and analogs and methods of use thereof” (University of Kansas, priority 2011, dated 2013):

Columns and labels:
HCC1937 cells = assay: Clonogenic assay, HCC1937; format: cell-based; conditions: 1-2 μM; treated 24 hours, cultured two weeks
BT20 = assay: MTS assay, BT20; format: cell-based
Experimental: (§1) Cell proliferation was analyzed using MTS assay.

ER+ MCF-7 cells = assay: Cell cycle analysis, MCF-7; format: cell-based; conditions: 1-2 μM; 24-hour treatment
MCF-7 = assay: MTS assay, MCF-7; format: cell-based
Experimental: as §1

[1] = In vitro metabolism, rat liver microsomes; format: in vitro ADME, rat (Sprague-Dawley); conditions: 1.0E-06 M
Experimental: (§2) The in vitro metabolism of […], as compared to known reference compounds, was analyzed using liver microsomes from human, dog (Beagle), rat (Sprague-Dawley) and mouse (CD-1). […] Results are from two independent tests.

[2] = In vitro metabolism, mouse liver microsomes; format: in vitro ADME, mouse (CD-1); conditions: 1.0E-06 M
Experimental: as §2

[3] = system: TT medullary thyroid cancer cells; assay: MTS cell viability assay, TT; format: cell-based; conditions: Table 1, 72-hour treatment
Experimental: Human carcinoid cells, NCI-H727 (ATCC, Manassas, Va.), were cultured under standard conditions. Squamous cell carcinoma of head and neck cells, MDA1986 (Myers, et al. (2002) Clin. Cancer Res. 8:293) and JMAR (Swan, et al. (2003) Oral Oncol. 39:648-55); and melanoma cells lines B16F10 (ATCC, Manassas, Va.) and SKMEL28 (CLS, Eppelheim, Germany) were cultured in DMEM medium supplemented with 10% heat-inactivated fetal bovine serum (Sigma-Aldrich, St. Louis, Mo.), 1×MEM-essential amino acid, 1×MEM vitamin, and penicillin/streptomycin (Sigma-Aldrich, St. Louis, Mo.) in a humid environment of 5% CO2 at 37° C. Activity of withanolides against DRO81-1 and TT medullary thyroid cancer cells was also determined.
Cells were cultured in 96 well plates at a concentration of 1-2×10^4 cells/mL. Cell viability was assessed with the nonradioactive cell proliferation MTS assay using Cell Titer 96AQUEOUS One Solution Reagent (PROMEGA, Madison, Wis.), according to the manufacturer's instruction. After a 72-hour treatment, 20 μL of Cell Titer 96AQUEOUS One Solution Reagent were added to each well and incubated for 3 hours at 37° C. 5% CO2, and formazan absorbance was measured at 490 nm.

HMLEC = assay: MTS assay, HMLEC; format: cell-based; conditions: HMLEC (normal)
Experimental: as §1

MDA-MB-231 cells = assay: Cell cycle analysis, MDA-MB-231; format: cell-based; conditions: 4 and 8 μM; 24-hour treatment
[4] = system: hsf1 and client proteins of Hsp90 in Hs766T cells; assay: Western blot, Hs766T; format: cell-based
[5] = system: Hs766T pancreatic cancer cells; assay: Co-treatment with carfilzomib, apoptosis, Hs766T; format: cell-based; conditions: 0.1, 0.2 or 0.3 μM X003 with carfilzomib (10 nM)
Experimental: To determine whether the instant withanolides could be used in combination with other treatment regimes, Hs766T pancreatic cancer cells were either treated with 0.1, 0.2 or 0.3 μM X003; 10 or 20 nM carfilzomib; or co-treated with carfilzomib (10 nM) and either 0.1, 0.2 or 0.3 μM X003.

[6] = system: HSF1, Hsp70 and Hsp40 mRNA; assay: HSF1, Hsp70 and Hsp40 mRNA levels; format: cell-based; conditions: Control 1.0
Experimental: Levels of HSF1, Hsp70 and Hsp40 mRNA were also determined in response to treatment with SX002 or X003 for 8 or 16 hours.

[7] = system: Hsp70 and Hsp40 in Hs766T cells; assay: Heat shock-induced Hsp70 and Hsp40 protein levels, Hs766T; format: cell-based; conditions: pretreatment 8 hours; 30-minute heat shock at 42° C.; further 8 hours
Experimental: For this analysis, Hs766T cells were incubated with X003 for 8 hours, followed by a 30-minute heat shock at 42° C. The cells were further incubated for 8 hours and Hsp70 and Hsp40 levels were determined.

SMILES | colony formation (HCC1937 cells) | Log ECF (BT20) | cell cycle effect (ER+ MCF-7 cells) | Log ECF (MCF-7) | Mean % Parent Compound Remaining [1] [%] | Mean % Parent Compound Remaining [2] [%] | IC50 [3] [nM] | Log ECF (HMLEC) | cell cycle effect (MDA-MB-231 cells) | stress and client protein response (western blot) [4] | apoptosis on co-treatment with carfilzomib [5] | HSF1 mRNA level ([6]; 8 hours) | HSP40 mRNA level ([6]; 8 hours) | HSP70 mRNA level ([6]; 8 hours) | HSF1 mRNA level ([6]; 16 hours) | HSP40 mRNA level ([6]; 16 hours) | HSP70 mRNA level ([6]; 16 hours) | heat shock-induced Hsp70 and Hsp40 protein levels [7]
CC1=C(CO)C(=O)O[C@@H]([C@@H](C)C2CC[C@H]3[C@@H]4C[C@H]5O[C@]56[C@@H](O)C=CC(=O)[C@]6(CO)[C@H]4CC[C@]23C)C1 (stereo partly drawn) [Compound X001] | strongly inhibited | 0.91 | G2/M cell cycle arrest | 1.88 | 31 | 29 | 1910 | 2.54 | G2/M arrest |  |  |  |  |  |  |  |  | 
CC(=O)OCC1=C(C)C[C@H]([C@@H](C)C2CC[C@H]3[C@@H]4C[C@H]5O[C@]56[C@@H](OC(C)=O)C=CC(=O)[C@]6(COC(C)=O)[C@H]4CC[C@]23C)OC1=O (stereo partly drawn) [Compound X003, 4,19,27-triacetyl X001] |  |  |  |  |  |  |  |  |  | induced oxidative and proteotoxic stress, while depleting hsf1 and client proteins of Hsp90 | enhances | 1.2 | 8.3 | 30.8 | 1.1 | 14.2 | 183.1 | failed to block
